Reference: publication PMC4356144, “The kinase LYK5 is a major chitin receptor in Arabidopsis and forms a chitin-induced complex with related kinase CERK1” (eLife, 2014)
Values belong to the molecule of their own block, whether it stands above or below them.

Assays:
[1] = molecular target: T1, AtLYK5 (full-length, HA-tagged) (Arabidopsis thaliana, UniProt O22808); assay: competition of chitin magnetic bead pull-down, anti-HA immunoblot; format: biochemical; details: protoplasts treated with 10 µM oligomer for 15 min before harvest
T1 construct: gene LYK5; full-length cDNA, HA tag, 35S promoter, Arabidopsis Col-0 protoplasts
T1 sequence (O22808 27-664): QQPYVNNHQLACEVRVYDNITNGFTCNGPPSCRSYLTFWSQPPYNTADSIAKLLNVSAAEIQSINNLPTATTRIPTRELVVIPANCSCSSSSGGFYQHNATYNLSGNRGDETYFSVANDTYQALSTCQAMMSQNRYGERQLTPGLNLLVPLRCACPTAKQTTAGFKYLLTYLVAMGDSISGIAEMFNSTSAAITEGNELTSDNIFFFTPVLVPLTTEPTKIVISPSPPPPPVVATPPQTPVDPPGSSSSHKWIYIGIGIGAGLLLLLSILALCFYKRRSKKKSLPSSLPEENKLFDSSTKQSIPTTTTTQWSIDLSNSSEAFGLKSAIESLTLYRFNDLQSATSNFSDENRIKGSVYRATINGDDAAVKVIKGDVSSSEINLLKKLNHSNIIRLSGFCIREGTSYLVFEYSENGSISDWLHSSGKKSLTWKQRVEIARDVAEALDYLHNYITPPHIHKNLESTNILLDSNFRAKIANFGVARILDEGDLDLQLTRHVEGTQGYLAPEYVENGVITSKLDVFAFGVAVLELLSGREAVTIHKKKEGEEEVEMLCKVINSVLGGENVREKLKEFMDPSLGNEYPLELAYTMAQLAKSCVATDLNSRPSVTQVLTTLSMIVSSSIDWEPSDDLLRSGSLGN

AtLYK5 (ectodomain) = molecular target: T2, AtLYK5 (ectodomain) (Arabidopsis thaliana, UniProt O22808); assay: isothermal titration calorimetry; format: binding; details: 10 mM HEPES pH 7.5, 100 mM NaCl, 25°C
T2 construct: gene LYK5; ectodomain 27-278 aa, E. coli BL21, pMCSG73; thrombin site before His tag, thrombin-cleaved, then Strep-Tactin purified
T2 sequence (O22808 27-278): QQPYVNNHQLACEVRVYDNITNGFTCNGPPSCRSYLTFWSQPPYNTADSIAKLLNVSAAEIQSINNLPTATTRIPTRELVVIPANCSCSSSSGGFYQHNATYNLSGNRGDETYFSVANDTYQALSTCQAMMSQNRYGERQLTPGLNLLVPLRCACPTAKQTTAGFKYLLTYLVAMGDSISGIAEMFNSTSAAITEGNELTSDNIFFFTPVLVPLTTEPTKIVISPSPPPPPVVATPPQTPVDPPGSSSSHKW

[2] = molecular target: T3, AtLYK4 (full-length, HA-tagged) (Arabidopsis thaliana, UniProt O64825); assay: competition of chitin magnetic bead pull-down, anti-HA immunoblot; format: biochemical; details: protoplasts treated with 10 µM oligomer for 15 min before harvest
T3 construct: gene LYK4; full-length cDNA, HA tag, 35S promoter, Arabidopsis Col-0 protoplasts
T3 sequence (O64825 23-612): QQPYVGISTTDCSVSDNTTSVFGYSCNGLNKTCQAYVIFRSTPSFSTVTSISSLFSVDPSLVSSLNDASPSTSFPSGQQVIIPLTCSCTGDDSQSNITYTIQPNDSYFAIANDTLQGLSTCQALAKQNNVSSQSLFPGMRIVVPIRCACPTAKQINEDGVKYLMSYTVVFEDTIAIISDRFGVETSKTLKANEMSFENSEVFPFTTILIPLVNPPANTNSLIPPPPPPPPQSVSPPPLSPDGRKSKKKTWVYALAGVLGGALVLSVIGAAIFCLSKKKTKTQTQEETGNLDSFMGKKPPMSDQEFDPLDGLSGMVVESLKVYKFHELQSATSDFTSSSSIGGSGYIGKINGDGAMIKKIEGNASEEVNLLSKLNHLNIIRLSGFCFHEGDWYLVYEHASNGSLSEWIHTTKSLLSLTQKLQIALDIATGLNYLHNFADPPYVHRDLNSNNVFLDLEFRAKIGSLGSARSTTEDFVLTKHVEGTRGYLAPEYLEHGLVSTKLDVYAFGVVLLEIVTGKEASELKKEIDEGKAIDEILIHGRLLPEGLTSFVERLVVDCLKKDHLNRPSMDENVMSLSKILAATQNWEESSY

AtCERK1 (ectodomain) = molecular target: T4, AtCERK1 (ectodomain) (Arabidopsis thaliana, UniProt A8R7E6); assay: isothermal titration calorimetry; format: binding; details: 10 mM HEPES pH 7.5, 100 mM NaCl, 25°C
T4 construct: gene CERK1; ectodomain 24-231 aa, pMAL-c2G (MBP fusion), amylose resin purified, E. coli
T4 sequence (A8R7E6 24-231): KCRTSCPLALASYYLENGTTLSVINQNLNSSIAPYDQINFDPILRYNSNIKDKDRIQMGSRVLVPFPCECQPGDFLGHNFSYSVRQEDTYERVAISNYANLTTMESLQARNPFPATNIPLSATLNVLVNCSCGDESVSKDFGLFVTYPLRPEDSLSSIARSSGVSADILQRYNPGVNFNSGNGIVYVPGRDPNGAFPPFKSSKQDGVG

[3] = molecular target: T5, wheat germ agglutinin (WGA); assay: isothermal titration calorimetry; format: binding; details: 10 mM HEPES pH 7.5, 100 mM NaCl, 25°C
T5 construct: gene WGA1

AtCERK1 kinase domain = molecular target: T6, AtCERK1 kinase domain (Arabidopsis thaliana, UniProt A8R7E6); assay: in vitro autophosphorylation, […] autoradiography; format: biochemical; details: 50 mM Tris pH 7.6, 50 mM KCl, 10 mM MnCl2, 10 mM MgCl2, room temperature; labelled compound
T6 construct: gene CERK1; intracellular kinase domain 255-617 aa, N-terminal GST, pGEX 5X-1, E. coli BL21 (DE3)
T6 sequence (A8R7E6 255-617): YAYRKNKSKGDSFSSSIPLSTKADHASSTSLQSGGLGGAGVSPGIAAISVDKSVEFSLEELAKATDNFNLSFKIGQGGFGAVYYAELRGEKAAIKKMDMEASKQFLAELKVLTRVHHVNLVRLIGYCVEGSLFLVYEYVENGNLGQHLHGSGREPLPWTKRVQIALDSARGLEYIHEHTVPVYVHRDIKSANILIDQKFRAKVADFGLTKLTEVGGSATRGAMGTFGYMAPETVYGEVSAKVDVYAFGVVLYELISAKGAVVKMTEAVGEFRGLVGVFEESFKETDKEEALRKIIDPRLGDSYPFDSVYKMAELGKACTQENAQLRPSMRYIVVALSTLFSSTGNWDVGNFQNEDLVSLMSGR

[4] = molecular target: the molecule itself; assay: SDS-PAGE without reducing agent and immunoblot; crude protein of transgenic Arabidopsis expressing AtLYK5-HA in Atlyk5-2, before or 15 min after 1 µM chitooctaose, boiled 5 min without DTT; anti-HA blot

Molecule: CC(=O)N[C@H]1[C@H](O[C@H]2[C@H](O)[C@@H](NC(C)=O)[C@H](O[C@H]3[C@H](O)[C@@H](NC(C)=O)[C@H](O[C@H]4[C@H](O)[C@@H](NC(C)=O)C(O)O[C@@H]4CO)O[C@@H]3CO)O[C@@H]2CO)O[C@H](CO)[C@@H](O[C@@H]2O[C@H](CO)[C@@H](O[C@@H]3O[C@H](CO)[C@@H](O[C@@H]4O[C@H](CO)[C@@H](O)[C@H](O)[C@H]4NC(C)=O)[C@H](O)[C@H]3NC(C)=O)[C@H](O)[C@H]2NC(C)=O)[C@@H]1O (some centres unmarked) [7mer, chitoheptaose]
competition of chitin magnetic bead pull-down, anti-HA immunoblot [1]: The binding with AtLYK5 was strongly inhibited by chitoheptaose and chitooctaose

Kd (AtLYK5 (ectodomain)): 1720 nM | Kd (AtCERK1 (ectodomain)): 455000 nM | Kd [3]: 1600 nM
Molecule: CC(=O)N[C@H]1[C@H](O[C@H]2[C@H](O)[C@@H](NC(C)=O)[C@H](O[C@H]3[C@H](O)[C@@H](NC(C)=O)[C@H](O[C@H]4[C@H](O)[C@@H](NC(C)=O)C(O)O[C@@H]4CO)O[C@@H]3CO)O[C@@H]2CO)O[C@H](CO)[C@@H](O[C@@H]2O[C@H](CO)[C@@H](O[C@@H]3O[C@H](CO)[C@@H](O[C@@H]4O[C@H](CO)[C@@H](O[C@@H]5O[C@H](CO)[C@@H](O)[C@H](O)[C@H]5NC(C)=O)[C@H](O)[C@H]4NC(C)=O)[C@H](O)[C@H]3NC(C)=O)[C@H](O)[C@H]2NC(C)=O)[C@@H]1O (some centres unmarked) [8mer, chitooctaose]
competition of chitin magnetic bead pull-down, anti-HA immunoblot [2]: the binding with AtCERK1 or AtLYK4 was only slightly reduced by the same competitors | competition of chitin magnetic bead pull-down, anti-HA immunoblot [1]: The binding with AtLYK5 was strongly inhibited by chitoheptaose and chitooctaose

Molecule: Nc1ncnc2c1ncn2[C@@H]1O[C@H](COP(=O)(O)OP(=O)(O)OP(=O)(O)O)[C@@H](O)[C@H]1O [ATP]
in vitro autophosphorylation, 32P autoradiography (AtCERK1 kinase domain): the AtCERK1 kinase domain showed strong kinase activity as previously reported

B1: AtLYK5-HA (full length AtLYK5 under its native promoter in Atlyk5-2 mutant plants) (receptor, Arabidopsis thaliana, UniProt O22808 27-664, looked up)
chain: QQPYVNNHQLACEVRVYDNITNGFTCNGPPSCRSYLTFWSQPPYNTADSIAKLLNVSAAEIQSINNLPTATTRIPTRELVVIPANCSCSSSSGGFYQHNATYNLSGNRGDETYFSVANDTYQALSTCQAMMSQNRYGERQLTPGLNLLVPLRCACPTAKQTTAGFKYLLTYLVAMGDSISGIAEMFNSTSAAITEGNELTSDNIFFFTPVLVPLTTEPTKIVISPSPPPPPVVATPPQTPVDPPGSSSSHKWIYIGIGIGAGLLLLLSILALCFYKRRSKKKSLPSSLPEENKLFDSSTKQSIPTTTTTQWSIDLSNSSEAFGLKSAIESLTLYRFNDLQSATSNFSDENRIKGSVYRATINGDDAAVKVIKGDVSSSEINLLKKLNHSNIIRLSGFCIREGTSYLVFEYSENGSISDWLHSSGKKSLTWKQRVEIARDVAEALDYLHNYITPPHIHKNLESTNILLDSNFRAKIANFGVARILDEGDLDLQLTRHVEGTQGYLAPEYVENGVITSKLDVFAFGVAVLELLSGREAVTIHKKKEGEEEVEMLCKVINSVLGGENVREKLKEFMDPSLGNEYPLELAYTMAQLAKSCVATDLNSRPSVTQVLTTLSMIVSSSIDWEPSDDLLRSGSLGN
notes: AtLYK5 (At2g33580), Arabidopsis thaliana; genomic fragment with the 1.8 kb promoter and the coding region up to the stop codon, in pGWB13; also called wild-type AtLYK5; source: transgenic Arabidopsis (Atlyk5-2 background, native promoter), in crude extract or lysate
stoichiometry N [4]: 2
